# “Also recorded” adds a separate entry of the source.
# Legend:
# [1] = system: A375 melanoma cells (BRAFV600E); test: Long-term colony formation assay in A375 cells; format: cell-based, human; conditions: for drug response of MED12 knockdown A375 cells: suppression of MED12; for effect of recombinant TGFβ on response of A375 cells to PLX4032 and AZD6244: TGFβ plus PLX4032 or AZD6244, TGFβ-dosage dependent
# Procedure: (§1) Cells were seeded into 6-well plates (2-5×10^4 cells/well) and cultured both in the absence and presence of drugs as indicated. […] All knockdown and overexpression experiments were done by retroviral or lentiviral infection. All relevant assays were performed independently at least three times.
# [2] = system: SK-CO-1 colorectal cancer cells (KRASV12); test: Long-term colony formation assay in SK-CO-1 cells; format: cell-based, human; conditions: for effect of recombinant TGFβ on response of SK-CO-1 cells to AZD6244: TGFβ plus AZD6244, TGFβ-dosage dependent
# Procedure: (§2) Cells were seeded into 6-well plates (2-5×10^4 cells/well) and cultured both in the absence and presence of drugs as indicated. More details are described in Huang et al., 2009 (Huang et al., 2009). All knockdown and overexpression experiments were done by retroviral or lentiviral infection. All relevant assays were performed independently at least three times.
# [3] = system: H3255 cells (EGFR L858R NSCLC); test: Long-term colony formation / cell proliferation assay in H3255 cells; format: cell-based, human
# Procedure: (§3) Single cell suspensions of the lung cancer cell lines were seeded into 6-well plates (2×10^4 cells/well) and cultured both in the absence and presence of the ALK inhibitors. At the endpoints of colony formation assays, cells were fixed with formaldehyde, stained with crystal violet (0.1% w/v) and photographed. All relevant assays were performed independently at least three times. All knockdown and overexpression experiments were done by retroviral or lentiviral infections.
# as §1
# [4] = system: PC9 cells (EGFR delE746-A750 NSCLC); test: Long-term colony formation / cell proliferation assay in PC9 cells; format: cell-based, human
# Procedure: as §3, §1
# [5] = system: H3122 cells (EML4-ALK NSCLC); test: Long-term colony formation / cell proliferation assay in H3122 cells; format: cell-based, human; conditions: for effect of recombinant TGFβ on crizotinib response of H3122 cells: TGFβ in combination with crizotinib, TGFβ-dosage dependent
# Procedure: as §3, §1
# [6] = system: Huh-7 HCC cells; test: Long-term colony formation assay in Huh-7 cells; format: cell-based, human
# Procedure: as §2
# [7] = system: ERK signaling; test: ERK signaling in MED12-suppressed cancer cells in presence of drugs; format: cell-based, human
# Procedure: The cells were fixed, stained and photographed after 10 (untreated) or 28 days (treated). […] The cells were fixed, stained and photographed after 14 (untreated) or 28 days (treated). […] G) Colony formation assay of Huh-7 cells expressing pLKO control or shMED12 vectors (#4 and #5) were cultured in 2 μM sorafenib. The cells were fixed, stained and photographed after 14 (untreated) or 21 days (treated). […] Huh-7 cells expressing pLKO control or shMED12 vectors were grown in the absence or presence of 4 μM sorafenib for 6 hours and the cell lysates were harvested for western blotting analysis.
# [8] = system: human NSCLC cell lines that harbor EML4-ALK translocations; conditions: Galkin 2007; Koivunen 2008; Soda 2007; cited from earlier work
# [9] = system: phospho-ERK; test: Western blotting of phospho-ERK in H3122 cells; format: cell-based, human; conditions: 20 nM NVP-TAE684, 24 hours
# Procedure: (A) MED12^KD cells retain phospho-ERK levels in the presence of ALK inhibitor in EML4-ALK cells. H3122 cells expressing controls (pRS or shGFP) or shMED12 vectors were gown in the absence or presence of 20 nM NVP-TAE684 for 24 hours and the cell lysates were harvested for western blotting analysis. (B) SMARCE1^KD cells have elevated phospho-ERK in EML4-ALK cells. H3122 cells expressing controls (pRS or shGFP) or shSMARCE1 vectors were gown in the absence or presence of 20 nM NVP-TAE684 for 24 hours and the cell lysates were harvested for western blotting analysis. (C) MED12^KD cells have elevated phospho-ERK levels in EGFR mutant cells.
# Given that loss of MED12 or SMARCE1 causes resistance to multiple tyrosine kinase inhibitors in NSCLC cell lines, Applicants asked whether the activity of downstream components of receptor tyrosine kinase signaling is altered. ERK is a key downstream component and its phosphorylation status positively correlates with its activation that can be determined by specific antibodies against the phosphorylated form of ERK. H3122 cells were infected with two independent controls shRNA vectors or shRNAs targeting either MED12 or SMARCE1 and confirmed loss of MED12 or SMARCE1 protein by immunoblotting (FIGS. 16A and B). […]
# [10] = system: H3255 cells (EGFR L858R NSCLC); conditions: parental cells, low nanomolar concentrations; cited from earlier work
# [11] = system: PC9 cells (EGFR delE746-A750 NSCLC); conditions: parental cells, low nanomolar concentrations; cited from earlier work
# [12] = system: H1993 cells (MET-amplified NSCLC); test: Long-term colony formation assay in H1993 cells; format: cell-based, human
# Procedure: as §3, §1
# [13] = system: EBC-1 cells (MET-amplified NSCLC); test: Long-term colony formation assay in EBC-1 cells; format: cell-based, human
# Procedure: as §3, §1
# [14] = system: phospho-ERK; test: Western blotting of phospho-ERK in PC9 cells; format: cell-based, human; conditions: 25 nM gefitinib, 8 hours
# Procedure: (A) Validation of independent shRNAs (in pLKO vector) targeting DABP2IP in PC9 cells. […] The cells were fixed, stained and photographed after 2 weeks (untreated) or 4 weeks (EGFR inhibitors treatment). (B) The knockdown ability of each of the shRNAs was measured by examining the DAB2IP mRNA levels by qRT-PCR. Error bars denote standard deviation (SD).
# To validate the results of Applicants' focused shRNA mini-screen, Applicants individually introduced the five DAB2IP shRNAs from the TRC shRNA collection into PC9 cells (FIG. 14A). […] Next, Applicants addressed whether loss of DAB2IP affects the activity of downstream signaling components of the RAS pathway, in particular the phosphorylation (activation) status of ERK. […] Next, Applicants individually introduced the five NF1 shRNAs from the TRC shRNA collection into PC9 cells (FIG. 15A).
compound,measurement,setting,value
CCCS(=O)(=O)Nc1ccc(F)c(C(=O)c2c[nH]c3ncc(Cl)cc23)c1F [PLX4720],drug response of MED12 knockdown A375 cells,[1],conferred resistance
TGFβ,effect of recombinant TGFβ on response of SK-CO-1 cells to AZD6244,[2],dosage dependent resistance
same,effect of recombinant TGFβ on response of SK-CO-1 cells to AZD6244,[2]; listed as Recombinant TGFβ,leads to resistance
same,effect of recombinant TGFβ on response of A375 cells to PLX4032 and AZD6244,[1],dosage dependent resistance
same,effect of recombinant TGFβ on response of A375 cells to PLX4032 and AZD6244,[1]; listed as Recombinant TGFβ,leads to resistance
same,"proliferation of A375 cells, recombinant TGFβ alone",[1]; TGFβ treatment alone,growth inhibition
same,effect of recombinant TGFβ on response of H3255 cells to EGFR inhibitors,[3]; TGFβ plus EGFR inhibitors,conferred resistance
same,effect of recombinant TGFβ on response of PC9 cells to EGFR inhibitors,[4]; TGFβ plus EGFR inhibitors,conferred resistance
same,effect of recombinant TGFβ on crizotinib response of H3122 cells,[5],continued to proliferate
same,effect of recombinant TGFβ on crizotinib response of H3122 cells,[5]; listed as Recombinant TGFβ,leads to resistance
same,"proliferation of Huh-7 cells, recombinant TGFβ alone",[6]; TGFβ treatment alone,growth inhibition
"Cn1cnc2c(F)c(Nc3ccc(Br)cc3Cl)c(C(=O)NOCCO)cc21 [AZD6244, seluteminib]",sensitivity of SK-CO-1 cells,[2]; parental cells,highly sensitive
same,drug response of MED12 knockdown SK-CO-1 cells,"[2]; shMED12, 0.5 μM AZD6244",conferred resistance
same,activation of ERK signaling by MED12 suppression in the presence of drug,[7],persists
Cc1cccc(-c2nn3c(c2-c2ccnc4ccc(C(N)=O)cc24)CCC3)n1 [LY2157299],"proliferation under monotherapy, control and MED12KD H3122 cells","[5]; 1 μM LY2157299 alone, all cells",little effect
COc1cc(N2CCC(N3CCN(C)CC3)CC2)ccc1Nc1ncc(Cl)c(Nc2ccccc2S(=O)(=O)C(C)C)n1 [NVP-TAE684],inhibition of EML4-ALK NSCLC cell lines,[8],potently inhibit
same,drug response of ARID1A knockdown H3122 cells,"[5]; shARID1A, 300 nM crizotinib or 2.5 nM NVP-TAE684",confer resistance
same,drug response of MED12 knockdown H3122 cells,"[5]; shMED12 vectors, 300 nM crizotinib or 2.5 nM NVP-TAE684",confer resistance; also recorded: conferred resistance
same,drug response of SMARCE1 knockdown H3122 cells,"[5]; shSMARCE1, 300 nM crizotinib or 2.5 nM NVP-TAE684",confer resistance
same,ERK phosphorylation in MED12 knockdown H3122 cells in presence of inhibitor,[9]; shMED12,maintained higher levels of ERK phosphorylation
same,phosphorylated ERK in SMARCE1 knockdown H3122 cells in presence of inhibitor,[9]; shSMARCE1,maintained higher levels of phosphorylated ERK
C#Cc1cccc(Nc2ncnc3cc(OCCOC)c(OCCOC)cc23)c1 [erlotinib],sensitivity of H3255 cells,[10],exquisitely sensitive
same,sensitivity of PC9 cells,[11],exquisitely sensitive
same,drug response of control H3255 cells,[3]; pRS and shGFP control cells,effectively eradicated
same,drug response of MED12 knockdown H3255 cells,[3]; shMED12,insensitive
same,drug response of DAB2IP knockdown PC9 cells,"[4]; shDAB2IP#1 and #3, 50 nM",conferred resistance
same,drug response of NF1 knockdown PC9 cells,"[4]; shNF1#2 and #5, 50 nM",conferred resistance
C[C@@H](Oc1cc(-c2cnn(C3CCNCC3)c2)cnc1N)c1c(Cl)ccc(F)c1Cl [crizotinib],drug response of ARID1A knockdown H1993 cells,[12]; shARID1A #1 and #2,conferred resistance
same,drug response of SMARCE1 knockdown H1993 cells,[12]; shSMARCE1#1 and #2,conferred resistance
same,drug response of SMARCE1 knockdown H1993 cells reconstituted with SMARCE1-ND,[12]; shSMARCE1 plus SMARCE1-ND,restored the sensitivity
same,drug response of SMARCE1 knockdown EBC-1 cells,[13]; shSMARCE1#1 and #2,conferred resistance
same,drug response of SMARCE1 knockdown EBC-1 cells reconstituted with SMARCE1-ND,[13]; shSMARCE1 plus SMARCE1-ND,restored the sensitivity
CNC(=O)c1cc(Oc2ccc(NC(=O)Nc3ccc(Cl)c(C(F)(F)F)c3)cc2)ccn1 [sorafenib],sensitivity of Huh-7 cells,[6]; parental cells,sensitive
same,drug response of MED12 knockdown Huh-7 cells,"[6]; shMED12, 2 μM sorafenib",became resistant
same,activation of ERK signaling by MED12 suppression in the presence of drug,[7],persists
O=C(NOC[C@H](O)CO)c1ccc(F)c(F)c1Nc1ccc(I)cc1F [PD-0325901],drug response of MED12 knockdown A375 cells,[1],conferred resistance
COc1cc2ncnc(Nc3ccc(F)c(Cl)c3)c2cc1OCCCN1CCOCC1 [gefitinib],phosphorylation of ERK in shDAB2IP PC9 cells treated with drug,[14],maintained
same,activation of ERK signaling by MED12 suppression in the presence of drug,[7],persists

# Source: patent US20140296248A1, “METHODS AND COMPOSITIONS FOR PREDICTING RESISTANCE TO ANTICANCER TREATMENT” (Stichting het Nederlands Kanker Instiuut-Antoni van …, priority 2011, published 2014)
